One block for each compound: values may come before it.
Columns and labels:
HeLa [1] = test: Cytotoxicity against human HeLa cells assessed as cell growth inhibition at 3.125 to 100 uM incubated for 72 hrs and measured after 2 hrs by microplate reader based WST-1 assay relative to control; type: functional
MCF7 [2] = test: Cytotoxicity against human MCF7 cells assessed as cell growth inhibition at 3.125 to 100 uM incubated for 72 hrs and measured after 2 hrs by microplate reader based WST-1 assay relative to control; type: functional
HCT-116 [3] = test: Cytotoxicity against human HCT116 cells assessed as cell growth inhibition at 3.125 to 100 uM incubated for 72 hrs and measured after 2 hrs by microplate reader based WST-1 assay relative to control; type: functional
HepG2 [4] = test: Cytotoxicity against human HepG2 cells assessed as cell growth inhibition at 3.125 to 100 uM incubated for 72 hrs and measured after 2 hrs by microplate reader based WST-1 assay relative to control; type: functional
HeLa [5] = test: Induction of apoptosis in human HeLa cells assessed as increase in caspase 3 activation by measuring fold increase in caspase 3 level by fluorescence based solid phase sandwich ELISA; type: functional
MCF7 [6] = test: Cytotoxicity against human MCF7 cells assessed as increase in growth inhibition by measuring decrease in cell viability incubated for 72 hrs and measured after 2 hrs by microplate reader based WST-1 assay; type: functional
[7] = biological target: T1, Epidermal growth factor receptor (Homo sapiens, UniProt P00533); test: Inhibition of EGFR-TK in human HeLa cells overexpressing EGFR incubated for 18 to 24 hrs by kinase assay; type: cell-based
HCT-116 [8] = test: Cytotoxicity against human HCT116 cells assessed as increase in growth inhibition by measuring decrease in cell viability incubated for 72 hrs and measured after 2 hrs by microplate reader based WST-1 assay; type: functional
DNA topoisomerase II [9] = biological target: T2, DNA topoisomerase II (Homo sapiens, UniProt P11388+Q02880); test: Inhibition of DNA topoisomerase 2 in human HeLa cells at 1 uM incubated for 18 to 24 hrs by kinase assay relative to control; type: cell-based
HeLa [10] = test: Induction of apoptosis in human HeLa cells assessed as increase in caspase 9 activation by measuring fold increase in caspase 9 level by fluorescence based solid phase sandwich ELISA; type: functional
HeLa [11] = test: Cytotoxicity against human HeLa cells assessed as increase in growth inhibition by measuring decrease in cell viability incubated for 72 hrs and measured after 2 hrs by microplate reader based WST-1 assay; type: functional
DNA topoisomerase II [12] = biological target: T2, DNA topoisomerase II; test: Inhibition of DNA topoisomerase 2 in human HeLa cells incubated for 18 to 24 hrs by kinase assay; type: cell-based
DNA topoisomerase II [13] = biological target: T2, DNA topoisomerase II; test: Inhibition of DNA topoisomerase 2 in human HeLa cells at 25 uM incubated for 18 to 24 hrs by kinase assay relative to control; type: cell-based
DNA topoisomerase II [14] = biological target: T2, DNA topoisomerase II; test: Inhibition of DNA topoisomerase 2 in human HeLa cells at 0.2 uM incubated for 18 to 24 hrs by kinase assay relative to control; type: cell-based
HepG2 [15] = test: Cytotoxicity against human HepG2 cells assessed as increase in growth inhibition by measuring decrease in cell viability incubated for 72 hrs and measured after 2 hrs by microplate reader based WST-1 assay; type: functional
DNA topoisomerase II [16] = biological target: T2, DNA topoisomerase II; test: Inhibition of DNA topoisomerase 2 in human HeLa cells at 5 uM incubated for 18 to 24 hrs by kinase assay relative to control; type: cell-based
DNA topoisomerase II [17] = biological target: T2, DNA topoisomerase II; test: Inhibition of DNA topoisomerase 2 in human MCF7 cells at 25 uM incubated for 18 to 24 hrs by kinase assay relative to control; type: cell-based
[18] = biological target: T1, Epidermal growth factor receptor; test: Inhibition of EGFR-TK in human MCF7 cells overexpressing EGFR incubated for 18 to 24 hrs by kinase assay; type: cell-based
DNA topoisomerase II [19] = biological target: T2, DNA topoisomerase II; test: Inhibition of DNA topoisomerase 2 in human MCF7 cells at 5 uM incubated for 18 to 24 hrs by kinase assay relative to control; type: cell-based
DNA topoisomerase II [20] = biological target: T2, DNA topoisomerase II; test: Inhibition of DNA topoisomerase 2 in human MCF7 cells at 1 uM incubated for 18 to 24 hrs by kinase assay relative to control; type: cell-based
MCF7 [21] = test: Induction of apoptosis in human MCF7 cells assessed as viable cells after 24 hrs by Annexin V-FITC/propidium iodide staining-based FACS analysis (reference value: 99.34%); type: functional
MCF7 [22] = test: Cell cycle arrest in human MCF7 cells assessed as accumulation at G0/G1 phase at IC50 after 24 hrs by propidium iodide staining based FACS analysis (reference value: 67.39%); type: functional
MCF7 [23] = test: Cell cycle arrest in human MCF7 cells assessed as accumulation at G2/M phase at IC50 after 24 hrs by propidium iodide staining based FACS analysis (reference value: 4.82%); type: functional
MCF7 [24] = test: Induction of apoptosis in human MCF7 cells assessed as necrotic cells after 24 hrs by Annexin V-FITC/propidium iodide staining-based FACS analysis (reference value: 0.15%); type: functional
MCF7 [25] = test: Induction of apoptosis in human MCF7 cells assessed as late apoptotic cells after 24 hrs by Annexin V-FITC/propidium iodide staining-based FACS analysis (reference value: 0.22%); type: functional
MCF7 [26] = test: Induction of apoptosis in human MCF7 cells assessed as increase in caspase 9 activation by measuring fold increase in caspase 9 level by fluorescence based solid phase sandwich ELISA; type: functional
MCF7 [27] = test: Cell cycle arrest in human MCF7 cells assessed as accumulation at S phase at IC50 after 24 hrs by propidium iodide staining based FACS analysis (reference value: 27.13%); type: functional
MCF7 [28] = test: Cell cycle arrest in human MCF7 cells assessed as accumulation at pre G1/apoptotic phase at IC50 after 24 hrs by propidium iodide staining based FACS analysis (reference value: 0.66%); type: functional
MCF7 [29] = test: Induction of apoptosis in human MCF7 cells assessed as early apoptotic cells after 24 hrs by Annexin V-FITC/propidium iodide staining-based FACS analysis (reference value: 0.29%); type: functional
MCF7 [30] = test: Induction of apoptosis in human MCF7 cells after 24 hrs by Annexin V-FITC/propidium iodide staining-based FACS analysis; type: functional, cell-based
DNA topoisomerase II [31] = biological target: T2, DNA topoisomerase II; test: Inhibition of DNA topoisomerase 2 in human MCF7 cells at 0.2 uM incubated for 18 to 24 hrs by kinase assay relative to control; type: cell-based
MCF7 [32] = test: Induction of apoptosis in human MCF7 cells assessed as increase in caspase 3 activation by measuring fold increase in caspase 3 level by fluorescence based solid phase sandwich ELISA; type: functional
DNA topoisomerase II [33] = biological target: T2, DNA topoisomerase II; test: Inhibition of DNA topoisomerase 2 in human MCF7 cells incubated for 18 to 24 hrs by kinase assay; type: cell-based
[34] = Homo sapiens, MCF7, read-out: IC50
[35] = Homo sapiens, HCT-116, read-out: IC50
[36] = Homo sapiens, HeLa, read-out: IC50
[37] = Homo sapiens, HepG2, read-out: IC50

T1 sequence (P00533 whole entry): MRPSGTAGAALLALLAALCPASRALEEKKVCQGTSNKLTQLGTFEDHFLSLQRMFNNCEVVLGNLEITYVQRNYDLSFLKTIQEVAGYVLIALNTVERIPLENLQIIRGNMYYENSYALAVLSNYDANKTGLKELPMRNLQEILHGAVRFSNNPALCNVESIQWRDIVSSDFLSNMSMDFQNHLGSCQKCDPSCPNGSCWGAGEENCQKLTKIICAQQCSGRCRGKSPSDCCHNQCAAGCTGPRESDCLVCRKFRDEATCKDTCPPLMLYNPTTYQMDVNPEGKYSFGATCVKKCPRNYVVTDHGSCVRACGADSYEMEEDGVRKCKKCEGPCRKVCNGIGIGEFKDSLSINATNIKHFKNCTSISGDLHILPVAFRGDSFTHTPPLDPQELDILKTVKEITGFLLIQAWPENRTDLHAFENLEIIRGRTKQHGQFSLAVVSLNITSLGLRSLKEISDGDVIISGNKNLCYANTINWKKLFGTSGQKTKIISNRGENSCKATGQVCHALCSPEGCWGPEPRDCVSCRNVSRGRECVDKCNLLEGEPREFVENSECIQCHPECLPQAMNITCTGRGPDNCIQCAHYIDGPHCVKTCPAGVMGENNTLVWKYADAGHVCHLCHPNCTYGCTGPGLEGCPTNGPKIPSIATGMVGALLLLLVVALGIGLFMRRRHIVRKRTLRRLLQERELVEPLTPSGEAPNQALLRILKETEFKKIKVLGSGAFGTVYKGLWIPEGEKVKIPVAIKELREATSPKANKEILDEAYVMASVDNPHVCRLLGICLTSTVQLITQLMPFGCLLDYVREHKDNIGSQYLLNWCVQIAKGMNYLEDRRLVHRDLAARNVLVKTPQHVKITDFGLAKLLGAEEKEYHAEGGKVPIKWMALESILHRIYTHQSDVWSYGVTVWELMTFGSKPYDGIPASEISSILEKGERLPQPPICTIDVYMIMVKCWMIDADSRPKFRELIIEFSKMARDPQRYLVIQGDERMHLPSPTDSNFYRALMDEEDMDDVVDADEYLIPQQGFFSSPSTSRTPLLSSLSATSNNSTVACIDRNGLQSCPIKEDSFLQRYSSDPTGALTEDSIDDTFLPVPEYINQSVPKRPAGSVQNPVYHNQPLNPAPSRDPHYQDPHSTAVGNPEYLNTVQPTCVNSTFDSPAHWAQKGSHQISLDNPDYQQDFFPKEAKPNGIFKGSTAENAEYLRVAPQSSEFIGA

Compound: Cc1ccc(-n2cc(COC(c3cccs3)c3cc4ccccc4nc3Cl)nn2)cc1 (stereo unspecified)
growth inhibition (GI) (HeLa [1]): <10%
growth inhibition (GI) (MCF7 [2]): <10%
growth inhibition (GI) (HCT-116 [3]): 13.03%
growth inhibition (GI) (HepG2 [4]): 18.78%

Compound: COc1ccc(-c2cc(COC(c3cccs3)c3cc4ccccc4nc3Cl)on2)cc1OC (stereo unspecified)
growth inhibition (GI) (HeLa [1]): <10%
growth inhibition (GI) (MCF7 [2]): <10%
growth inhibition (GI) (HCT-116 [3]): <10%
growth inhibition (GI) (HepG2 [4]): <10%

Compound: Cc1cc(C)cc(-c2cc(COC(c3cccs3)c3cc4ccccc4nc3Cl)on2)c1 (stereo unspecified)
growth inhibition (GI) (HeLa [1]): <10%
growth inhibition (GI) (MCF7 [2]): <10%
growth inhibition (GI) (HCT-116 [3]): <10%
growth inhibition (GI) (HepG2 [4]): <10%

Compound: O=[N+]([O-])c1ccc(-n2cc(COC(c3cccs3)c3cc4ccccc4nc3Cl)nn2)cc1 (stereo unspecified)
growth inhibition (GI) (HeLa [1]): <10%
growth inhibition (GI) (MCF7 [2]): <10%
growth inhibition (GI) (HCT-116 [3]): <10%
growth inhibition (GI) (HepG2 [4]): <10%

IC50 [7]: 6.3 µM
inhibition (DNA topoisomerase II [9]): 20%
IC50 (DNA topoisomerase II [12]): 4.95 µM
inhibition (DNA topoisomerase II [13]): 80.7%
inhibition (DNA topoisomerase II [14]): 3.85%
inhibition (DNA topoisomerase II [16]): 45%
Compound: OC(c1cccs1)c1cc2ccccc2nc1Cl (stereo unspecified)
fold change (FC) (HeLa [5]): 12.8
IC50 (MCF7 [6]; [34]): 80.6 µM
IC50 (HCT-116 [8]; [35]): 69.3 µM
fold change (FC) (HeLa [10]): 72.6
IC50 (HeLa [11]; [36]): 17.5 µM
IC50 (HepG2 [15]; [37]): 80.8 µM

Compound: FC(F)(F)c1cccc(COC(c2cccs2)c2cc3ccccc3nc2Cl)c1 (stereo unspecified)
growth inhibition (GI) (HeLa [1]): 42.42%
IC50 (MCF7 [6]; [34]): 101 µM
growth inhibition (GI) (MCF7 [2]): 52.9%
IC50 (HCT-116 [8]; hct-116): Not Active
IC50 (HeLa [11]; hela): Not Active
growth inhibition (GI) (HCT-116 [3]): 23.22%
IC50 (HepG2 [15]; hepg2): Not Active
growth inhibition (GI) (HepG2 [4]): <10%

Compound: COc1ccc(-c2cc(COC(c3cccs3)c3cc4ccccc4nc3Cl)on2)cc1 (stereo unspecified)
growth inhibition (GI) (HeLa [1]): <10%
growth inhibition (GI) (MCF7 [2]): <10%
growth inhibition (GI) (HCT-116 [3]): 20.31%
growth inhibition (GI) (HepG2 [4]): 17.93%

inhibition (DNA topoisomerase II [17]): 93.2%
IC50 [18]: 3.66 µM
inhibition (DNA topoisomerase II [19]): 84.7%
inhibition (DNA topoisomerase II [20]): 63.3%
inhibition (DNA topoisomerase II [31]): 36.3%
IC50 (DNA topoisomerase II [33]): 0.44 µM
Compound: Clc1ccc(COC(c2cccs2)c2cc3ccccc3nc2Cl)cc1 (stereo unspecified)
growth inhibition (GI) (HeLa [1]): 30.41%
IC50 (MCF7 [6]; [34]): 28.3 µM
Activity (MCF7 [21]): 82.72%
growth inhibition (GI) (MCF7 [2]): 47.94%
IC50 (HCT-116 [8]; hct-116): Not Active
IC50 (HeLa [11]; hela): Not Active
growth inhibition (GI) (HCT-116 [3]): <10%
Activity (MCF7 [22]): 44.28%
Activity (MCF7 [23]): 23.14%
Activity (MCF7 [24]): 1.6%
Activity (MCF7 [25]): 8.67%
fold change (FC) (MCF7 [26]): 29
Activity (MCF7 [27]): 15.35%
Activity (MCF7 [28]): 17.05%
Activity (MCF7 [29]): 6.69%
Activity (MCF7 [30]): Dose-dependent effect
IC50 (HepG2 [15]; hepg2): Not Active
fold change (FC) (MCF7 [32]): 33.7
growth inhibition (GI) (HepG2 [4]): <10%

Compound: FC(F)(F)c1ccc(-n2cc(COC(c3cccs3)c3cc4ccccc4nc3Cl)nn2)cc1 (stereo unspecified)
growth inhibition (GI) (HeLa [1]): <10%
growth inhibition (GI) (MCF7 [2]): <10%
growth inhibition (GI) (HCT-116 [3]): 35.86%
growth inhibition (GI) (HepG2 [4]): <10%

Compound: Cc1ccc(-c2cc(COC(c3cccs3)c3cc4ccccc4nc3Cl)on2)cc1 (stereo unspecified)
growth inhibition (GI) (HeLa [1]): <10%
IC50 (MCF7 [6]; mcf7): Not Active
growth inhibition (GI) (MCF7 [2]): 22.03%
IC50 (HCT-116 [8]; [35]): 115 µM
IC50 (HeLa [11]; hela): Not Active
growth inhibition (GI) (HCT-116 [3]): 43.91%
IC50 (HepG2 [15]; hepg2): Not Active
growth inhibition (GI) (HepG2 [4]): 31.77%

Compound: C#CCOC(c1cccs1)c1cc2ccccc2nc1Cl (stereo unspecified)
IC50 (MCF7 [6]; [34]): > 100 µM
IC50 (HCT-116 [8]; [35]): > 100 µM
IC50 (HeLa [11]; [36]): 34.7 µM
IC50 (HepG2 [15]; [37]): > 100 µM
